Columns and labels:
[1] = relative permittivity at various frequencies (dimensionless); xn = mol fraction of the nth substance listed; settings: 99 kPa, Liquid, Frequency=2 MHz, Parallel plate capacitor
[2] = refractive index (Na D-line) (dimensionless); xn = mol fraction of the nth substance listed; settings: 99 kPa, Liquid, Abbe refractometer

CC(C)(C)Cl [2-chloro-2-methylpropane] + CCCCCCC
Settings | refractive index, 283.15 K | refractive index, 298.15 K | refractive index, 313.15 K | relative permittivity, 283.15 K | relative permittivity, 298.15 K | relative permittivity, 313.15 K
[1], x2 = 0 | – | – | – | 10.429 | 9.67 | 8.952
[1], x2 = 0.0506 | – | – | – | 9.787 | 9.1 | 8.449
[1], x2 = 0.1035 | – | – | – | 9.109 | 8.485 | 7.907
[1], x2 = 0.2006 | – | – | – | 7.895 | 7.373 | 6.892
[1], x2 = 0.3012 | – | – | – | 6.721 | 6.293 | 5.932
[1], x2 = 0.3976 | – | – | – | 5.754 | 5.41 | 5.118
[1], x2 = 0.504 | – | – | – | 4.827 | 4.566 | 4.34
[1], x2 = 0.6015 | – | – | – | 4.103 | 3.914 | 3.747
[1], x2 = 0.6988 | – | – | – | 3.472 | 3.341 | 3.226
[1], x2 = 0.8014 | – | – | – | 2.905 | 2.819 | 2.749
[1], x2 = 0.9027 | – | – | – | 2.407 | 2.359 | 2.322
[1], x2 = 0.9444 | – | – | – | 2.209 | 2.173 | 2.144
[2], x2 = 0 | 1.39115 | 1.38225 | 1.37312 | – | – | –
[2], x2 = 0.0511 | 1.39054 | 1.38172 | 1.37267 | – | – | –
[2], x2 = 0.0962 | 1.39025 | 1.38149 | 1.37249 | – | – | –
[2], x2 = 0.1985 | 1.38996 | 1.3813 | 1.37238 | – | – | –
[2], x2 = 0.2955 | 1.38988 | 1.38132 | 1.37254 | – | – | –
[2], x2 = 0.3985 | 1.39001 | 1.38159 | 1.37294 | – | – | –
[2], x2 = 0.4985 | 1.39024 | 1.38196 | 1.37347 | – | – | –
[2], x2 = 0.5996 | 1.39059 | 1.38244 | 1.37414 | – | – | –
[2], x2 = 0.7039 | 1.39105 | 1.38306 | 1.37492 | – | – | –
[2], x2 = 0.8032 | 1.39164 | 1.38375 | 1.37573 | – | – | –
[2], x2 = 0.9039 | 1.39225 | 1.38447 | 1.37653 | – | – | –
[2], x2 = 0.9618 | 1.39267 | 1.38492 | 1.37703 | – | – | –

CCC(C)Cl (centres undefined) [2-chlorobutane] + CCCCCC
Settings | refractive index, 283.15 K | refractive index, 298.15 K | refractive index, 313.15 K | relative permittivity, 283.15 K | relative permittivity, 298.15 K | relative permittivity, 313.15 K
[1], x2 = 0 | – | – | – | 9.323 | 8.652 | 8.07
[1], x2 = 0.0536 | – | – | – | 8.752 | 8.128 | 7.593
[1], x2 = 0.0967 | – | – | – | 8.282 | 7.716 | 7.222
[1], x2 = 0.1993 | – | – | – | 7.216 | 6.76 | 6.345
[1], x2 = 0.2995 | – | – | – | 6.242 | 5.881 | 5.556
[1], x2 = 0.3993 | – | – | – | 5.389 | 5.093 | 4.827
[1], x2 = 0.4997 | – | – | – | 4.625 | 4.39 | 4.182
[1], x2 = 0.5974 | – | – | – | 3.963 | 3.786 | 3.626
[1], x2 = 0.7026 | – | – | – | 3.366 | 3.225 | 3.106
[1], x2 = 0.8044 | – | – | – | 2.811 | 2.72 | 2.642
[1], x2 = 0.9006 | – | – | – | 2.349 | 2.296 | 2.253
[1], x2 = 0.9472 | – | – | – | 2.137 | 2.105 | 2.07
[2], x2 = 0 | 1.40226 | 1.39404 | 1.38562 | – | – | –
[2], x2 = 0.0471 | 1.40083 | 1.3926 | 1.38418 | – | – | –
[2], x2 = 0.0973 | 1.39939 | 1.39115 | 1.38274 | – | – | –
[2], x2 = 0.1986 | 1.39658 | 1.38833 | 1.37993 | – | – | –
[2], x2 = 0.293 | 1.39412 | 1.38584 | 1.37742 | – | – | –
[2], x2 = 0.4036 | 1.39142 | 1.38315 | 1.3747 | – | – | –
[2], x2 = 0.5099 | 1.38903 | 1.38071 | 1.37229 | – | – | –
[2], x2 = 0.6202 | 1.38673 | 1.37842 | 1.37002 | – | – | –
[2], x2 = 0.708 | 1.38508 | 1.37678 | 1.3684 | – | – | –
[2], x2 = 0.8068 | 1.38338 | 1.3751 | 1.36674 | – | – | –
[2], x2 = 0.908 | 1.38183 | 1.37356 | 1.36523 | – | – | –
[2], x2 = 0.9555 | 1.38113 | 1.37286 | 1.36454 | – | – | –
